Reference: US20230137562A1, “TAU AGGREGATION INHIBITORS” (priority 2017, published 2023)
Ends that are not written are not given here. Peptide text beside a SMILES is read from it. TAMRA = tetramethyl rhodamine dye

B1: [TAMRA]-RRRRRRRRR-GGSGG-WRLKVRWW (peptide)
peptide: {TAMRA}-RRRRRRRRRGGSGGWRLKVRWW
B2: [TAMRA]-RRRRRRRRRR-GGSGG-WRIWIRYW (peptide)
peptide: {TAMRA}-RRRRRRRRRRGGSGGWRIWIRYW
B3: RRRRRRRRR-GGSGG-LFYLRLT (peptide)
peptide: RRRRRRRRRGGSGGLFYLRLT

molecular target: His-Tau40P301L Tau (UniProt P10636-8 1-441); test: cell-based or functional assay; settings: not given
Sequence (P10636 other isoform, or with tags, fused parts or gaps limits assumed): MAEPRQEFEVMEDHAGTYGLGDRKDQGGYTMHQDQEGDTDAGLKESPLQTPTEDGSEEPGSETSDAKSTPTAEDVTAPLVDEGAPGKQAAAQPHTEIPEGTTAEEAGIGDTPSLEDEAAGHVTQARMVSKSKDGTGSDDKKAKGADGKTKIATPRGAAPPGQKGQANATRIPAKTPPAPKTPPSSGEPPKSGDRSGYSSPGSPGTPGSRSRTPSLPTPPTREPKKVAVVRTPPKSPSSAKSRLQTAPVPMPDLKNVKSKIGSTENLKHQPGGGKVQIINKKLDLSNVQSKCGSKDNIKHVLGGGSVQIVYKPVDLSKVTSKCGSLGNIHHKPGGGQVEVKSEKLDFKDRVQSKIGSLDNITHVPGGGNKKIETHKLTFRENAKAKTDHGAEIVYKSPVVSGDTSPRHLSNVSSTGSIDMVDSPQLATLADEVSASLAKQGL

| IC50 (µM), Tau40 assay-Modified peptides (ThT) [µM] | Molecule |
| --- | --- |
| 7.3 | B1 |
| 12.6 | B2 |

molecular target: TauRD (P301S)-Nluc and TauRD (P301S)-Cluc split luciferase compliment pair (human, UniProt P10636-8 244-372; P10636-8 244-372); test: cell-based or functional assay; settings: not given
Sequence (P10636 561-689 P618S, chain 1 of 2): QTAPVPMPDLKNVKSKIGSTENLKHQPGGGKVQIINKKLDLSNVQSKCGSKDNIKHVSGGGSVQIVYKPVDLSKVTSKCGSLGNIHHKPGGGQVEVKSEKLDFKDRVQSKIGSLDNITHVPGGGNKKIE
Sequence (P10636 561-689 P618S, chain 2 of 2): as the sequence (P10636 561-689 P618S, chain 1 of 2) above

| EC50 (µM), HEK cell assay, split luciferase complementation [µM] | Molecule |
| --- | --- |
| 8.2 | B1 |
| 4.1 | B2 |
| 9.6 | B3 |

molecular target: T1, Tau40P301L protein (Homo sapiens, UniProt P10636, P618L); test: biochemical; settings: IC50 (μM), Tau40 assay
T1 construct: His; made in house; host or cells: E. coli BL21
T1 sequence (P10636 1-441 isoform P10636-8 P301L): as the sequence (P10636 other isoform, or with tags, fused parts or gaps limits assumed) above
Procedure: The following describes the experimental method used to evaluate the IC50 of Tau amyloid inhibition by the peptide inhibitors described above. The physical setup of inhibitor peptides in these dose responses is done automatically with an 8-span head on a BioMek3000 liquid handler into Costar optically 96-well clear bottom black plates. Inhibitor peptides are kept frozen at −80° C. in 100% dimethylsulfoxide (DMSO) solution at a concentration of 20 mM and thawed immediately before the assay. The Biomek makes two serial dilutions of a single inhibitor for a duplicate 6-point dose response curve. This is followed by addition a 5×reaction buffer. The final reaction buffer concentration in the assay is 50 mM MES, pH 6.8, 125 mM NaCl, 10 μM Heparin, 50 μM ThT. The Tau substrate is added by a 96-head Multimek liquid handler making a 4:10 dilution of Tau40P301L protein to which DTT is added directly before setting up the assay. The P301 L mutant of tau is associated with features of human tauopathies (Comb et al., supra; Lewis et al., Nature Genetics 25: 402-405 (2000)). The final concentrations of Tau40P301L and DTT in the assay is 2.5 μM and 5 mM, respectively. Amyloid formation is measured by monitoring Thioflavin T (ThT) fluorescence every 10 minutes with excitation and emission wavelengths of 440 and 485 nm using fluorescence plate readers. The assay plates are kept in the plate reader during the whole duration of the assay, and incubated at 37° C. with continuous shaking for 24 hours. Plate reader models Genios and Spectrafluor Plus produced by Tecan are used and data is acquired using Magellan software. The calculation of IC50 is done by an automatic algorithm developed using the R statistical programing language. Briefly, the algorithm uses data exported in excel format from the plate reader to average the cumulative ThT fluorescence for each inhibitor concentration in the 6-point dose response. The IC50 is calculated as the midpoint of a sigmoid curve fitted to the correlation of normalized ThT fluorescence and inhibitor concentration.

| Molecule | IC50 [µM] |
| --- | --- |
| CC[C@H](C)[C@H](NC(=O)[C@@H](N)CCCNC(=N)N)C(=O)N[C@@H](CCCNC(=N)N)C(=O)N[C@@H](CC(C)C)C(=O)N[C@@H](Cc1c[nH]c2ccccc12)C(=O)N[C@@H](Cc1ccc(O)cc1)C(=O)N[C@@H](Cc1c[nH]c2ccccc12)C(=O)O [compound 60] (H-RIRLWYW-OH) | 8.01 |
| CC[C@H](C)[C@H](NC(=O)[C@H](CCCNC(=N)N)NC(=O)[C@@H](NC(=O)[C@@H](N)Cc1c[nH]c2ccccc12)[C@@H](C)CC)C(=O)N[C@@H](CCCNC(=N)N)C(=O)N[C@@H](Cc1ccc(O)cc1)C(=O)N[C@@H](Cc1c[nH]c2ccccc12)C(=O)O [compound 152] (H-WIRIRYW-OH) | 2.6 |
| CC[C@H](C)[C@H](NC(=O)[C@H](CCCNC(=N)N)NC(=O)[C@@H](N)Cc1c[nH]c2ccccc12)C(=O)N[C@@H](Cc1c[nH]c2ccccc12)C(=O)N[C@@H](C)C(=O)N[C@@H](CCCNC(=N)N)C(=O)N[C@@H](Cc1ccc(O)cc1)C(=O)N[C@@H](Cc1c[nH]c2ccccc12)C(=O)O [compound 163] (H-WRIWARYW-OH) | 2.95 |
| CC[C@H](C)[C@H](NC(=O)[C@H](CCCNC(=N)N)NC(=O)[C@@H](NC(=O)[C@H](Cc1c[nH]c2ccccc12)NC(=O)[C@@H](N)Cc1c[nH]c2ccccc12)[C@@H](C)CC)C(=O)N[C@@H](CCCNC(=N)N)C(=O)N[C@@H](Cc1ccc(O)cc1)C(=O)N[C@@H](Cc1c[nH]c2ccccc12)C(=O)N[C@@H](CC(C)C)C(=O)O [compound 65] (H-WWIRIRYWL-OH) | 1.31 |

molecular target: T2, Ac-VQIINK-NH2 (Homo sapiens, UniProt P10636); test: Inhibition of VQIINK aggregation with peptide inhibitors (ThT); format: biochemical; settings: not given
T2 construct: made in house; host or cells: chemical peptide synthesis
Procedure: The following describes the experimental method used to evaluate the IC50 of aggregation of VQIINK (SEQ ID NO:220) inhibition by the peptide inhibitors described above. The peptide sequence comprising Ac-VQIINK-NH2 (C-terminal amidated (SEQ ID NO: 220)) is prepared using the peptide synthetic method described above. The Ac-VQIINK-NH2 (SEQ ID NO: 220) is stored at 10 mM in 100% DMSO at −80° C., and an aliquot volume sufficient for a single aggregation assay plate is removed. The stock aggregation buffer (5×) is prepared with the following: 250 mM NaPhosphate (pH 8.0), 125 mM KCl, and 500 micromolar ThioflavinT (ThT). The aggregation assay is conducted with shaking, at room temperature, on a plate reader model FLX-800 by BioTek. Water for primary Ac-VQIINK-NH2 (SEQ ID NO: 220) dissolution is cooled to 4 degrees Celsius (7.245 milliliters). Buffer is added from the 5×stock (40 microliters, final volume in assay plate is 130 microliters, final buffer concentrations 50 millimolar NaPO4 (pH 8.0); 25 milllimolar KCl; and 100 micromolar ThioflavinT). The assay plate is cooled to 4 degrees Celsius. The Ac-VQIINK-NH2 (105 microliters (SEQ ID NO: 220)) is added to the chilled water (final volume of 7.350 milliliters), this is added into a pooled reservoir, and using a 96-channel robotic pipettor, 70 microliters diluted Ac-VQIINK-NH2 (SEQ ID NO: 220) is added to the assay plate to achieve a final concentration of 50 micromolar in a 200 microliter final assay volume (per well). Data is acquired using Magellan software. The calculation of IC50 is done by an automatic algorithm developed using the R statistical programing language. Briefly, the algorithm uses data exported in excel format from the plate reader to average the cumulative ThT fluorescence for each inhibitor concentration in the 6-point dose response. The IC50 is calculated as the midpoint of a sigmoid curve fitted to the correlation of normalized ThT fluorescence and inhibitor concentration.

| Molecule | IC50 [µM] |
| --- | --- |
| CC[C@H](C)[C@H](NC(=O)[C@H](CCC(N)=O)NC(=O)[C@@H](NC(=O)[C@H](CCCNC(=N)N)NC(=O)[C@@H](N)Cc1c[nH]c2ccccc12)[C@@H](C)CC)C(=O)N[C@@H](CCCNC(=N)N)C(=O)N[C@@H](Cc1c[nH]c2ccccc12)C(=O)O [compound 69] (H-WRIQIRW-OH) | 2.17 |
| CC[C@H](C)[C@H](NC(=O)[C@@H](N)CCCCN)C(=O)N[C@@H](CCCNC(=N)N)C(=O)N[C@@H](CC(C)C)C(=O)N[C@@H](Cc1ccc(O)cc1)C(=O)N[C@@H](Cc1c[nH]c2ccccc12)C(=O)N[C@@H](Cc1c[nH]c2ccccc12)C(=O)O [compound 194] (H-KIRLYWW-OH) | 2.86 |
| CC[C@H](C)[C@H](NC(=O)[C@H](CCCNC(=N)N)NC(=O)[C@@H](NC(=O)[C@@H](N)Cc1c[nH]c2ccccc12)[C@@H](C)CC)C(=O)N[C@@H](CCCNC(=N)N)C(=O)N[C@@H](Cc1ccc(O)cc1)C(=O)N[C@@H](Cc1c[nH]c2ccccc12)C(=O)O [compound 152] (H-WIRIRYW-OH) | 6.02 |
| CC[C@H](C)[C@H](NC(=O)[C@H](Cc1c[nH]c2ccccc12)NC(=O)[C@@H](NC(=O)[C@H](CCCNC(=N)N)NC(=O)[C@@H](N)CC(C)C)[C@@H](C)CC)C(=O)N[C@@H](CCCNC(=N)N)C(=O)N[C@@H](Cc1ccc(O)cc1)C(=O)N[C@@H](CC(C)C)C(=O)O [compound 155] (H-LRIWIRYL-OH) | 1.74 |
| CC[C@H](C)[C@H](NC(=O)[C@H](CCCNC(=N)N)NC(=O)[C@@H](NC(=O)[C@@H](N)CCCNC(=N)N)[C@@H](C)CC)C(=O)N[C@@H](Cc1c[nH]c2ccccc12)C(=O)N[C@@H](CC(C)C)C(=O)N[C@@H](Cc1c[nH]c2ccccc12)C(=O)O [compound 26] (H-RIRIWLW-OH) | 1.93 |
| CC[C@H](C)[C@H](NC(=O)[C@H](CCCNC(=N)N)NC(=O)[C@@H](NC(=O)[C@H](Cc1c[nH]c2ccccc12)NC(=O)[C@@H](N)Cc1c[nH]c2ccccc12)[C@@H](C)CC)C(=O)N[C@@H](CCCNC(=N)N)C(=O)N[C@@H](Cc1ccc(O)cc1)C(=O)N[C@@H](Cc1c[nH]c2ccccc12)C(=O)N[C@@H](CC(C)C)C(=O)O [compound 65] (H-WWIRIRYWL-OH) | 4.88 |
| CC[C@H](C)[C@H](NC(=O)[C@H](CCCNC(=N)N)NC(=O)[C@@H](N)Cc1c[nH]c2ccccc12)C(=O)N[C@@H](Cc1c[nH]c2ccccc12)C(=O)N[C@@H](CC(C)C)C(=O)N[C@@H](CCCNC(=N)N)C(=O)N[C@@H](Cc1ccc(O)cc1)C(=O)N[C@@H](Cc1c[nH]c2ccccc12)C(=O)O [compound 17] (H-WRIWLRYW-OH) | 2.32 |
| CC[C@H](C)[C@H](NC(=O)[C@H](Cc1ccccc1)NC(=O)[C@@H](NC(=O)[C@H](CCCNC(=N)N)NC(=O)[C@@H](N)Cc1c[nH]c2ccccc12)[C@@H](C)CC)C(=O)N[C@@H](CCCNC(=N)N)C(=O)N[C@@H](Cc1c[nH]c2ccccc12)C(=O)O [compound 136] (H-WRIFIRW-OH) | 9.13 |
| CC[C@H](C)[C@H](N)C(=O)N[C@@H](Cc1c[nH]c2ccccc12)C(=O)N[C@H](C(=O)N[C@@H](CCCNC(=N)N)C(=O)N[C@@H](CC(C)C)C(=O)N[C@@H](Cc1c[nH]c2ccccc12)C(=O)O)[C@@H](C)CC [compound 50] (H-IWIRLW-OH) | 2.12 |
| CC[C@H](C)[C@H](N)C(=O)N[C@@H](Cc1c[nH]c2ccccc12)C(=O)N[C@H](C(=O)N[C@@H](CCCNC(=N)N)C(=O)N[C@@H](Cc1ccc(O)cc1)C(=O)N[C@@H](Cc1c[nH]c2ccccc12)C(=O)O)[C@@H](C)CC [compound 180] (H-IWIRYW-OH) | 5.43 |
| CC[C@H](C)[C@H](NC(=O)[C@H](Cc1c[nH]c2ccccc12)NC(=O)[C@@H](NC(=O)[C@H](CCCNC(=N)N)NC(=O)[C@@H](N)Cc1c[nH]c2ccccc12)[C@@H](C)CC)C(=O)N[C@@H](CCCNC(=N)N)C(=O)N[C@@H](CC(C)C)C(=O)N[C@@H](Cc1c[nH]c2ccccc12)C(=O)O [compound 202] (H-WRIWIRLW-OH) | 3.97 |
| CC[C@H](C)[C@H](NC(=O)[C@H](C)NC(=O)[C@@H](N)Cc1c[nH]c2ccccc12)C(=O)N[C@@H](CCCNC(=N)N)C(=O)N[C@H](C(=O)N[C@@H](CCCNC(=N)N)C(=O)N[C@@H](Cc1c[nH]c2ccccc12)C(=O)O)[C@@H](C)CC [compound 124] (H-WAIRIRW-OH) | 1.94 |
| CC[C@H](C)[C@H](NC(=O)[C@H](CCCNC(=N)N)NC(=O)[C@@H](NC(=O)[C@H](CCCNC(=N)N)NC(=O)[C@@H](N)CC(C)C)[C@@H](C)CC)C(=O)N[C@@H](CCCNC(=N)N)C(=O)N[C@@H](Cc1c[nH]c2ccccc12)C(=O)O [compound 139] (H-LRIRIRW-OH) | 4.31 |
